{"source": "patent US20110236467A1", "about": "“METHOD FOR ERECTILE FUNCTION PO[…] PHARMACEUTICAL CO[…] TX2-6 OF THE SPIDER PHONEUTRIA NIGRIVENTER” (priority 2008, published 2011)", "test_system": "nitric oxide synthase (NOS)", "assay": "Blockage of nitric oxide synthase by L-NAME and Tx2-6 action on erectile function (ICP/MAP) in rats", "type": "in vivo, rat", "description": "The participation of nitric oxide, resulting from the toxin effect on erection, was tested by using a nonselective inhibitor of the nitric oxide synthase enzyme, L-NAME (L-N^G-nitro-arginine methyl ester), intracavernosally injected (200 mg/Kg) in normotensive rats treated with Tx2-6 (subcutaneously injected; 48 μg/Kg).\nNitric oxide (NO) is generated from the amino acid L-arginine by means of the NOS enzyme action. This synthesis occurs in different parts of the organism, including the corpus cavernosum. In this experiment, an inhibitor nonspecific for NOS (L-NAME, 200 mg/Kg) was injected intracavemosally.", "note": "“Also recorded” adds a separate entry of the source."}
{"smiles": "COC(=O)[C@@H](N)CCCNC(=N)N[N+](=O)[O-]", "note": "[L-NAME, L-N^G-nitro-arginine methyl ester]", "values": [{"measurement": "effect of L-NAME on rat erectile function (ICP/AMP ratio)", "setting": "L-NAME 200 mg/Kg intracavernosal, submaximum stimulation", "result": "blocked rat erectile function; also recorded: significant blockage"}, {"measurement": "effect of L-NAME on the potentiator effect of erection caused by the toxin (ICP/MAP relation)", "setting": "L-NAME with Tx2-6", "result": "completely blocked"}]}
